Paper PMC11783063, “Design, synthesis, and apoptotic antiproliferative action of new benzimidazole/1,2,3-triazole hybrids as EGFR inhibitors” (Frontiers in Chemistry, 2025)

What was measured:
[1] = test system: A-549 (lung cancer cell line); assay: Antiproliferative assay, A-549; assay type: cell-based, human; details: Homo sapiens, A549; read-out: Antiproliferative activity IC50 ± SEM, A-549
From the text: (§1) Refer to Supplementary Appendix A for more information.
(§2) DMSO (0.1%) was used as control.

[2] = test system: Panc-1 (pancreatic cancer cell line); assay: Antiproliferative assay, Panc-1; assay type: cell-based, human; details: Homo sapiens, PANC-1; read-out: Antiproliferative activity IC50 ± SEM, Panc-1
From the text: as §1, §2

[3] = test system: HT-29 (colon cancer cell line); assay: Antiproliferative assay, HT-29; assay type: cell-based, human; details: Homo sapiens, read-out: Antiproliferative activity IC50 ± SEM, HT-29
From the text: as §1, §2

caspase-3 = assay: Caspase-3 activation assay in MCF-7 cells; assay type: cell-based, human; details: for Caspase-3 Conc: compound at its IC50 concentration; for Caspase-3 Fold change: vs untreated control
From the text: (§3) Cells experience apoptosis in reaction to specific signaling cues, resulting in significant modifications. […] They decompose vital cellular components, including nuclear proteins, such as DNA repair enzymes and structural proteins within the cytoskeleton, essential for optimal cellular function.
(§4) Supplementary Appendix A provides more details.
Allow all reagents to reach room temperature before use. Gently mix all liquid reagents prior to use. Determine the number of 8-well strips needed for the assay. Insert these in the frame(s) for current use. Add 100 μl of the Standard Diluent Buffer to the zero standard wells. Well(s) reserved for chromogen blank should be left empty. Add 100 μl of standards and controls or diluted samples to the appropriate microtiter wells. The sample dilution chosen should be optimized for each experimental system. Tap gently on the side of plate to mix. Cover wells with plate cover and incubate for 2 hours at room temperature. Thoroughly aspirate or decant solution from wells and discard the liquid, Wash wells 4 times. […] Tap gently on the side of the plate to mix. Cover plate with plate cover and incubate for 1 hour at room temperature. Thoroughly aspirate or decant solution from wells and discard the liquid, Wash wells 4 times. Add 100 μl Anti-Rabbit IgG HRP Working Solution to each well except the chromogen blank(s). Prepare the working dilution as described in Preparing IgG HRP. Cover wells with the plate cover and incubate for 30 minutes at room temperature. Thoroughly aspirate or decant solution from wells and discard the liquid. Wash wells 4 times. Add 100 μl of Stabilized Chromogen to each well. The liquid in the wells will begin to turn blue. Incubate for 30 minutes at room temperature and in the dark. The incubation time for chromogen substrate is often determined by the microtiter plate reader used. […] The O.D. values should be monitored, and the substrate reaction stopped before the O.D. of the positive wells exceeds the limits of the instrument. The O.D. values at 450 nm can only be read after the Stop Solution has been added to each well. […] Add 100 μl of Stop Solution to each well. Tap side of plate gently to mix. The solution in the wells should change from blue to yellow. Read the absorbance of each well at 450 nm having blanked the plate reader against a chromogen blank composed of 100 μl each of Stabilized Chromogen and Stop Solution. Read the plate within 2 hours after adding the Stop Solution. Use a curve fitting software to generate the standard curve. […] Read the concentrations for unknown samples and controls from the standard curve. Multiply value(s) obtained for sample(s) by the appropriate dilution factor to correct for the dilution in step 3.

caspase-8 = assay: Caspase-8 activation assay in MCF-7 cells; assay type: cell-based, human; details: for Caspase-8 Conc: compound at its IC50 concentration; for Caspase-8 Fold change: vs untreated control
Method: as §3, §4
The absorbance of each microwell was read on a spectrophotometer at 450 nm. A standard curve is prepared from 7human Caspase-8 standard dilutions and human Caspase-8 concentration determined.

[4] = test system: four human cancer cell lines (HT-29, A-549, MCF-7, Panc-1); assay: Antiproliferative assay, mean over four cancer cell lines (GI50); details: Homo sapiens, read-out: Average IC50 (GI50)
Method: To calculate the total nuclear DNA, a fluorescent dye (propidium iodide, PI) is used which can attach to the DNA, thus offering a quick and precise technique. PI cannot pass through the cell membrane and its signal intensity can be considered as directly proportional to quantity of cellular DNA. Cells whose cell membranes are damaged or have changed permeability are counted as dead ones. […] The medium was removed; the compounds were added to the plates at 10 µM concentrations (in 0.1% DMSO) in triplicates, followed by incubation for 48 h. DMSO (0.1%) was used as control. After incubation, medium was removed followed by the addition of PI (25 µl, 50µg/mL in water/medium) to each well of the plates. At -80 °C, the plates were allowed to freeze for 24 h, followed by thawing at 25 °C. A fluorometer (Polar-Star BMG Tech) was used to record the readings at excitation and emission wavelengths of 530 and 620 nm for each well. The percentage cytotoxicity of compounds was calculated using the following formula:

IC50 [1] [nM] | IC50 [2] [nM] | IC50 [3] [nM] | IC50 [4] [nM] | SMILES | Caspase-3 Conc (caspase-3) [pg/mL] | Caspase-3 Fold change (caspase-3) | Caspase-8 Conc (caspase-8) [ng/mL] | Caspase-8 Fold change (caspase-8)
30 ± 2 | 28 ± 2 | 30 ± 2 | 29 | NS(=O)(=O)c1ccc(-n2cc(CSc3nc4ccccc4[nH]3)nn2)cc1 [6i, 4-(4-(((1H-benzimidazol-2-yl)thio)methyl)-1H-1,2,3-triazol-1-yl)benzene-sulfonamide] | 590 ± 5 | 9 | 1.60 ± 0.20 | 18
26 ± 2 | 26 ± 2 | 25 ± 2 | 25 | O=[N+]([O-])c1cccc(-n2cc(Cn3c(SCc4ccccc4)nc4ccccc43)nn2)c1 [10e] | 778 ± 6 | 12 | 1.75 ± 0.15 | 19
